Source: PMC10799042 (Scientific Reports, 2024)

Tests used:
[1] = system: scopolamine-induced memory impairment and learning disability in mice; experiment: Morris water maze, scopolamine-induced memory impairment; format: in vivo, Swiss albino male mice; conditions: for Escape latency, 1st Day: day 1; for Escape latency, 2nd Day: day 2; for Escape latency, 3rd Day: day 3; for Escape latency, 4th Day: day 4; for Escape latency, 5th Day: day 5; for escape latency versus scopolamine-treated mice (in words): 2 mg/kg, day 1 to 5
Description: Swiss albino male mice weighing 25–30 g were purchased from LLRUVAS in Hisar, Haryana, India. […] The housing, care, and handling of the animals were done per CPCSEA requirements. The animals were exposed to the laboratory setting for seven days before the experiment.
(§1) The animals were properly acclimated before being randomly placed into 12 groups (I-XII), with six animals in each group. […] Following the delivery of the dose to the mouse, the rodent's behaviour was assessed using the traditional Morris water maze (MWM) technique.
Five days of continuous animal evaluations were conducted using the MWM model. […] The tank was placed in a dim laboratory, and using wires anchored at the pool's edge at an angle to one another, it was divided into four equal pieces (P1–P4). A stage in the targeted area (P4) of the pool with an upper face (6 × 6 cm^2) immersed in the water (1.0 cm below the surface). The location of the stage stayed the same throughout the evaluation. The animals were subjected to water pools throughout the evaluation by turning their heads towards the wall from any of the four segments, namely P1-P4, and being given 90 s to recognise the stage placed in a pool. If the animal couldn't get to the stage in 90 s, they were gently guided onto the stage under supervision. On the sixth day, one of the parameters used to determine if cognitive impairments have recovered was the time it took the mice to travel from the initial portion to locate the hidden stage in the intended part (escape latency). […]

Catalase = Catalase assay in brain homogenate; format: in vivo; conditions: brain THS of mice, scopolamine 1.5 mg/kg i.p.; donepezil and compounds 2 mg/kg p.o.; mean ± SD
Description: as §1
(§2) After five days of behavioral assessment, the mice's brains were removed and homogenized (blended) in chilled phosphate buffer (pH 7.4) at a concentration of 10% w/v (weight per volume). The homogenates were then centrifuged (spun at high speed) for 20 min at 4 °C to separate the supernatant (liquid) from the pellet (solid material). The supernatant was then collected to measure biological substances.
Employing the methodology of Luck et al., catalase activity was quantified. The sample contained H2O2 (1.0 mL, 0.019 M), phosphate buffer (1.95 mL, 0.05 M, pH 7.0), and THS (0.05 mL). The optical density was computed at a wavelength of 240 nm. The findings were shown as μM H2O2 decomposition/min/mg protein[13].

malondialdehyde (MDA) = experiment: Lipid peroxidation (LPO) assay, MDA in brain homogenate; format: in vivo; conditions: brain THS of mice, scopolamine 1.5 mg/kg i.p.; donepezil and compounds 2 mg/kg p.o.; mean ± SD
Description: as §1, §2
The amount of malondialdehyde (MDA), a marker of lipid peroxidation (LPO), was measured using a method described by Wills[10]. Tris–HCl buffer and THS were mixed and incubated at 37 °C for 2 h with 10% trichloroacetic acid. After incubation, the mixture was centrifuged again (at 1000 rpm for 10 min). […] After cooling, 1.0 mL of double-distilled water was added, and the absorbance was measured at 532 nm.

[2] = molecular target: T1, Acetylcholinesterase (AChE) (Mus musculus, UniProt P21836); conditions: brain THS of mice, scopolamine 1.5 mg/kg i.p.; donepezil and compounds 2 mg/kg p.o.; mean ± SD
T1 sequence (P21836 32-614): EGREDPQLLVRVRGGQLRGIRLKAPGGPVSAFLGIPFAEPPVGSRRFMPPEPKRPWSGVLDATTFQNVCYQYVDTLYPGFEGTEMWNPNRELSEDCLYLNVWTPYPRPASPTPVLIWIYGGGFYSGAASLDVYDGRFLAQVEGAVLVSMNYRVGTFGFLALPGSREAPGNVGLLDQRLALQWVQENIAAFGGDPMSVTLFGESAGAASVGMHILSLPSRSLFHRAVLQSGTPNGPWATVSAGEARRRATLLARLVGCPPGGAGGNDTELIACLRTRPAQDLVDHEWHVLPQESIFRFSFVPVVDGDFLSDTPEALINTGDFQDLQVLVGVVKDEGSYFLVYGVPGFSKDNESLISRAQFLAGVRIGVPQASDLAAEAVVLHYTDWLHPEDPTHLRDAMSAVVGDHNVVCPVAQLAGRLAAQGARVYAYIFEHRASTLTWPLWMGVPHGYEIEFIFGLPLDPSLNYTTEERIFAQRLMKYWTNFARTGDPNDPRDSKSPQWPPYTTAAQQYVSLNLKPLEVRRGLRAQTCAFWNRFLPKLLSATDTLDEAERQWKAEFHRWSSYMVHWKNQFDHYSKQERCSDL
Description: as §1, §2
Employing Ellman et al., methodology, AChE levels were quantified in tissue homogenate supernatant (THS) to evaluate cholinergic abnormalities.

[3] = system: Superoxide dismutase (SOD); experiment: Superoxide dismutase (SOD) assay in brain homogenate; format: in vivo; conditions: brain THS of mice, scopolamine 1.5 mg/kg i.p.; donepezil and compounds 2 mg/kg p.o.; mean ± SD
Description: as §1, §2
The samples contained EDTA, sodium carbonate, and NBT, and the assay was performed using Kono's method. Each sample tube contained 2.0 mL of this mixture, as well as THS and hydroxylamine. The absorbance of the mixture was measured at 560 nm every 30 or 60 s for 2 min to track changes in absorbance.

[4] = system: Reduced glutathione (GSH); experiment: Reduced glutathione (GSH) assay in brain homogenate; format: in vivo; conditions: brain THS of mice, scopolamine 1.5 mg/kg i.p.; donepezil and compounds 2 mg/kg p.o.; mean ± SD
Description: as §1, §2
The method described by Jollow et al. was used to measure glutathione (GSH) levels. First, 1.0 mL of 4% sulfosalicylic acid was added to 1.0 mL of tissue homogenate to precipitate the GSH. The mixture was then incubated at 4 °C for 1 h and centrifuged at 1200 rpm for 10 min at 4 °C. The supernatant was collected and diluted to a final volume of 3.0 mL with phosphate buffer and Ellman's reagent. […]

nitrite = experiment: Nitrite assay (Greiss reagent) in brain homogenate; format: in vivo; conditions: brain THS of mice, scopolamine 1.5 mg/kg i.p.; donepezil and compounds 2 mg/kg p.o.; mean ± SD
Description: as §1, §2
The amount of nitric oxide in THS was calculated using Greiss' reagent, a mixture of chemicals that reacts with nitric oxide to produce a colored product. The absorbance of the colored product was computed at 540 nm and the concentration of nitrite was determined using a standard curve of known nitrite concentrations.

[5] = mice, scopolamine 1.5 mg/kg i.p., donepezil and compounds 2 mg/kg p.o. with scopolamine, mean ± SD

| Compound | Escape latency, 1st Day [1, 5] | Escape latency, 2nd Day [1, 5] | Escape latency, 3rd Day [1, 5] | Escape latency, 4th Day [1, 5] | Escape latency, 5th Day [1, 5] | TSTQ (time spent in the target quadrant) ([1]; mice, scopolamine 1.5 mg/kg i.p., donepezil and compounds 2 mg/kg p.o. with scopolamine, probe trial, mean ± SD) | Catalase assay, Catalase activity (Catalase) | LPO assay, MDA levels (malondialdehyde (MDA)) | escape latency versus scopolamine-treated mice (in words) [1] | μM of AChE/min/mg protein [2] | SOD assay, SOD units/mg protein [3] | GSH assay, μmol of GSH/mg Protein [4] | Nitrite assay, nitrite conc. (nitrite) |
| --- | --- | --- | --- | --- | --- | --- | --- | --- | --- | --- | --- | --- | --- |
| CN1[C@@H]2C[C@@H](OC(=O)[C@H](CO)c3ccccc3)C[C@H]1[C@@H]1O[C@@H]12 [Scopolamine, scopolamine, reference compound] | 78.65 ± 0.82 s | 80.64 ± 3.91 s | 82.82 ± 3.79 s | 84.15 ± 3.31 s | 86.25 ± 3.31 s | 18.55 ± 0.88 s | – | – | – | – | – | – | – |
| N-(1-(1-(3,4-dimethoxybenzyl)-2-oxopyrrolidin-3-yl)piperidin-4-yl)-2,4-difluorobenzenesulfonamide [Compound 10] | 80.33 ± 1.09 s | 36 ± 1.09 s | 25.33 ± 1.79 s | 17 ± 1.67 s | 3.66 ± 1.88 s | – | 4.3 ± 0.01 min⁻¹ | 8.52 ± 0.05 nM/mg of tissue | significantly reduced escape latency | 0.01 ± 0.01 μM of AChE/min/mg protein | 3.07 ± 0.04 SOD units/mg protein | 0.10 ± 0.005 μmol of GSH/mg Protein | 12.82 ± 0.04 μM/mg protein |
| N-(1-(1-(3,4-dimethoxybenzyl)-2-oxopyrrolidin-3-yl)piperidin-4-yl)-4-fluorobenzenesulfonamide [Compound 8] | – | 43 ± 2.68 s | 22.66 ± 1.79 s | 14.16 ± 2.56 s | 5.66 ± 1.97 s | – | 5.23 ± 0.02 min⁻¹ | 9.71 ± 0.03 nM/mg of tissue | significantly reduced escape latency | 0.01 ± 0.01 μM of AChE/min/mg protein | 4.07 ± 0.03 SOD units/mg protein | 0.11 ± 0.001 μmol of GSH/mg Protein | 11.92 ± 0.05 μM/mg protein |
| 2-(1-benzylpiperidin-4-yl)-4-chloro-6,7-dimethoxyquinoline [Compound 15] | 80.5 ± 0.86 s | 49.83 ± 0.75 s | 29.16 ± 3.07 s | 11.5 ± 1.04 s | 3.83 ± 1.34 s | – | 5.35 ± 0.03 min⁻¹ | 8.54 ± 0.02 nM/mg of tissue | significantly reduced escape latency | 0.02 ± 0.02 μM of AChE/min/mg protein | 3.14 ± 0.03 SOD units/mg protein | 0.09 ± 0.003 μmol of GSH/mg Protein | 14.66 ± 0.04 μM/mg protein |
| 2-(2-(1-benzylpiperidin-4-yl)ethyl)-4-chloro-6,7-dimethoxyquinoline [Compound 17] | 81 ± 0.89 s | 32.83 ± 1.83 s | 22.66 ± 1.79 s | 12.33 ± 2.25 s | 4.16 ± 0.74 s | – | 4.76 ± 0.02 min⁻¹ | 8.73 ± 0.05 nM/mg of tissue | significantly reduced escape latency | 0.02 ± 0.01 μM of AChE/min/mg protein | 3.09 ± 0.02 SOD units/mg protein | 0.11 ± 0.006 μmol of GSH/mg Protein | 12.57 ± 0.05 μM/mg protein |
| 2-(1-benzylpiperidin-4-yl)-6,7-dimethoxy-4-(4-(trifluoromethyl)phenyl)quinoline [Compound 19] | 54.83 ± 1.47 s | 44.83 ± 2.71 s | 21.33 ± 2.68 s | 13.16 ± 2.31 s | 3.66 ± 0.94 s | – | 5.17 ± 0.05 min⁻¹ | 9.25 ± 0.02 nM/mg of tissue | significantly reduced escape latency | 0.01 ± 0.02 μM of AChE/min/mg protein | 3.09 ± 0.03 SOD units/mg protein | 0.09 ± 0.005 μmol of GSH/mg Protein | 11.31 ± 0.03 μM/mg protein |
| N-(1-benzylpiperidin-4-yl)-2-(2-oxoindolin-3-yl)acetamide [Compound 23] | 55.33 ± 1.96 s | 45.16 ± 0.75 s | 35.33 ± 2.56 s | 11.83 ± 1.94 s | 4.16 ± 1.067 s | – | – | – | significantly reduced escape latency | 0.01 ± 0.04 μM of AChE/min/mg protein | – | – | – |
